Results reported in ChEMBL document CHEMBL5137131, “Mechanisms of Biochanin A Alleviating PM2.5 Organic Extracts-Induced EMT of A549 Cells through the PI3K/Akt Pathway” (J Nat Prod, 2022).
The source made the active and inactive calls. No cut-off for these calls is given here.

Columns and labels:
[1] = target: Serine/threonine-protein kinase AKT (Homo sapiens) (UniProt P31751+Q9Y243+P31749); assay: Inhibition of PM2.5 induced Akt phosphorylation upregulation in human A549 cells at 10 uM by Western blot analysis relative to control; format: cell-based
A549 [2] = assay: Inhibition of PM2.5 induced PI3K upregulation in human A549 cells at 10 uM by Western blot analysis relative to control; format: functional
A549 [3] = assay: Inhibition of PM2.5 induced PI3K expression in human A549 cells at 10 uM by qRT-PCR analysis; format: functional, cell-based
A549 [4] = assay: Inhibition of PM2.5 induced Akt phosphorylation in human A549 cells at 10 uM […]; format: functional, cell-based
A549 [5] = assay: Inhibition of PM2.5 induced E-cadherin downregulation in human A549 cells at 10 uM by Western blot analysis; format: functional, cell-based
A549 [6] = assay: Downregulation of PM2.5 induced vimentin expression in human A549 cells at 10 uM by Western blot analysis; format: functional, cell-based
A549 [7] = assay: Downregulation of PM2.5 induced Snail expression in human A549 cells; format: functional, cell-based
A549 [8] = assay: Downregulation of PM2.5 induced Slug expression in human A549 cells; format: functional, cell-based

Chain of Serine/threonine-protein kinase AKT (Homo sapiens) (P31749 whole entry, looked up): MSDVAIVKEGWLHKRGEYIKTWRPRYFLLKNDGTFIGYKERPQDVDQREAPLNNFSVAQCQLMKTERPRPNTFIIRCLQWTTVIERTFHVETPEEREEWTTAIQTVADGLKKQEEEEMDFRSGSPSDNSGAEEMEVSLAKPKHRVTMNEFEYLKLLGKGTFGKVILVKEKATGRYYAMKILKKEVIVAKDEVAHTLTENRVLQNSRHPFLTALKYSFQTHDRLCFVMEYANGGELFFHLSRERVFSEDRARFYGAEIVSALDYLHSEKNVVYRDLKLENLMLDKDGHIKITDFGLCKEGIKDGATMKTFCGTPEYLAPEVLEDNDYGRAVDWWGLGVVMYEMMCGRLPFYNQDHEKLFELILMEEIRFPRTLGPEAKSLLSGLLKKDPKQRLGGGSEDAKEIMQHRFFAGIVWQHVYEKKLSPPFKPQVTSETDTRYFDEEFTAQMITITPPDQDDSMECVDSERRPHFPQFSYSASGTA
Chain of Serine/threonine-protein kinase AKT (Homo sapiens) (P31751 whole entry, looked up): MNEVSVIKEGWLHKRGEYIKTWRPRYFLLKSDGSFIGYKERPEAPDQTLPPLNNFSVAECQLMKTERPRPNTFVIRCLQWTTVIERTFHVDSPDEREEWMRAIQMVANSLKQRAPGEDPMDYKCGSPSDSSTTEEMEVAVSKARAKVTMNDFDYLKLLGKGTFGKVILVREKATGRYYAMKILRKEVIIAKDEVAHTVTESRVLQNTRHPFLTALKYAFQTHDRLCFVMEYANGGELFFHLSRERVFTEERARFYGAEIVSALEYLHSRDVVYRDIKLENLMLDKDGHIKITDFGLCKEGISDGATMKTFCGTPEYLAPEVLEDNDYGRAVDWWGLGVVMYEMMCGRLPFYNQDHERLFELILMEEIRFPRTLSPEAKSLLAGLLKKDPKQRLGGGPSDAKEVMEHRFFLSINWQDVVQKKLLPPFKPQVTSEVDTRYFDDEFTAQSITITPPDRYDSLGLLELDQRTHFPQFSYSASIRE
Chain of Serine/threonine-protein kinase AKT (Homo sapiens) (Q9Y243 whole entry, looked up): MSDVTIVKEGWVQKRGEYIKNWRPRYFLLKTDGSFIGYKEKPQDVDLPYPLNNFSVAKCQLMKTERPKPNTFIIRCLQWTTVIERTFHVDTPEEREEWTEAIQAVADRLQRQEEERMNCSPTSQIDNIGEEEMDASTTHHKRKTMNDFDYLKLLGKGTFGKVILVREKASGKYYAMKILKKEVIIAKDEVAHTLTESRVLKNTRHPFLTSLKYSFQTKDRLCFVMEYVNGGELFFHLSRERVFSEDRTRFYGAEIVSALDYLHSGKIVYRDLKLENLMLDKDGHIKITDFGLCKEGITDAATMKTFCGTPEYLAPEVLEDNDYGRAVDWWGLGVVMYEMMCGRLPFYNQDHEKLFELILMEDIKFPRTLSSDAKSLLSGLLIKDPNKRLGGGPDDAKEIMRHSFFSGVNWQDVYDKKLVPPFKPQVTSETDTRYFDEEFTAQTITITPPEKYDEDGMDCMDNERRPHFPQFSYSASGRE

**Q.** With `O=c1cc(N2CCOCC2)oc2c(-c3ccccc3)cccc12` [LY-294002] as the compound, how does the inhibition [1] read?
**A.** The inhibition was 15%.

**Q.** What about the inhibition at 10 µM (A549 [2]) of the same compound?
**A.** The inhibition at 10 µM was 84.3%.

**Q.** And the inhibition (A549 [3])?
**A.** Its inhibition is “Active”.

**Q.** And the inhibition (A549 [4])?
**A.** Its inhibition is “Active”.

**Q.** What about the inhibition (A549 [5]) of the same compound?
**A.** Its inhibition is “Active”.

**Q.** What about the Activity (A549 [6]) of the same compound?
**A.** The Activity was “Active”.

**Q.** And the Activity (A549 [7])?
**A.** Its Activity is “Active”.

**Q.** What about the Activity (A549 [8]) of the same compound?
**A.** The Activity was “Active”.
